Results reported in US6008240A, “2-(1H-4(5)-imidazoyl) cyclopropyl derivatives” (Gliatech, Inc., priority 1997, dated 1999).
Where two headings read alike, the source gives them in different places.

Experiments:
H3 receptor = conditions: cited from earlier work
H3 = conditions: cited from earlier work
Histamine H3 Receptor = target: T1, Histamine H3 Receptor (Rattus norvegicus, UniProt Q9QYN8); assay: In Vitro Histamine H3 Receptor Binding Analysis ([3H]-Nα-methylhistamine, rat cortical membranes)
T1 construct: from tissue; host or cells: rat cerebral cortex membranes
Description: Histamine H3 receptor affinity was determined in rat cortical membranes using the H3 selective agonist ligand, [^3 H]-N^α -methylhistamine (78.9 Ci/mmole, DuPont NEN Research Products, Boston, Mass.) according to the method of West et al., (1990) Mol. Pharmacol. 38: 610-613 with modifications. Briefly, animals were sacrificed by decapitation and the cerebral cortex was rapidly removed. Rat cortices were mechanically homogenized with an Omni 1000 motor driven homogenizer in 10 volumes (wt/vol) of Krebs-Ringers Hepes buffer (pH 7.4) containing the following protease inhibitors; EDTA (10 mmol), PMSF (0.1 mM), chymostatin (0.2 mg/50 mL) and leupeptin (0.2 mg/50 mL). The homogenate was centrifuged in a Sorvall at ~40,000 x g for 30 min. The pellet was resuspended by mechanical homogenization in 25 mL water and lysed on ice for 30 min. The homogenate was recentrifuged and the membrane lysis was repeated. The membranes were recentrifuged and the final pellet was resuspended in 14 volumes of water to give approximately 200 μg protein/100 μl final concentration. The suspension was stored at -80° C. prior to use. Protein concentrations were determined by Coomassie Plus Protein Assay (Pierce, Rockford, Ill.).
Nonspecific binding (NSB) was accounted for by the inclusion of thioperamide (10 μM). Samples were incubated for 40 minutes at 25° C. The samples were filtered through glass fiber strips, pre-washed with 0.3% polyethyleneimine, using a Brandell cell harvester. The filters were rapidly washed three times with 4 ml of 25 mM Tris buffer containing 145 mM NaCl (pH 7.4, 4° C.). Filters were transferred to polyethylene minivials and counted in 3.5 ml of scintillation fluid (Ecolume, ICN Biomedicals, Inc.). Using this procedure, the non-specific binding was less than 10% of the total binding and the binding to the glass fiber filters was negligible. Saturation and competition experiments were analyzed with the ReceptorFit saturation and competition curve fitting programs (Lundon Software, Inc., Cleveland, Ohio).

[1] = intraventricular; saline and pentobarbital-treated rats; cited from earlier work
[2] = intraventricular; rabbits; cited from earlier work
[3] = dose-dependent; species not printed in this sentence (preceding sentence: cat); cited from earlier work
[4] = rat cortical membranes, 0.8-1.2 nM [3H]-Nα-methylhistamine, 40 minutes at 25° C., pH 7.4, read-out: H3 Receptor Ki
[5] = read-out: H3 Receptor Ki, rat cortical membranes, 0.8-1.2 nM [3H]-Nα-methylhistamine, 40 minutes at 25° C., pH 7.4

T1 sequence (Q9QYN8 whole entry): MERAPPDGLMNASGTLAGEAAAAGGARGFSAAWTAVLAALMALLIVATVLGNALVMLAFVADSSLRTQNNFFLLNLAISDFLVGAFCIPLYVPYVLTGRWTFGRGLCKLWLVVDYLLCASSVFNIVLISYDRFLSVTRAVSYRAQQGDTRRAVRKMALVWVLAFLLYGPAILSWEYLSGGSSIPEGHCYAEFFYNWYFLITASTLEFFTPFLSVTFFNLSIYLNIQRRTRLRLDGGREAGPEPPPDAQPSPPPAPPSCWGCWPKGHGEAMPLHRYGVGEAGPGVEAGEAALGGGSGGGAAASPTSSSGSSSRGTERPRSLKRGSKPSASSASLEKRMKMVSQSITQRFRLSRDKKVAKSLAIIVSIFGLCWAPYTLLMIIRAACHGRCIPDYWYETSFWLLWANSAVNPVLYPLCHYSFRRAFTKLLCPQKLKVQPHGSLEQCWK

| SMILES | Ki (Histamine H3 Receptor; [4]) [nM] | Ki (Histamine H3 Receptor) [nM] | other results |
| --- | --- | --- | --- |
| COc1ccc(CC(=NO)C(=O)NCCc2c[nH]cn2)cc1Br |  |  | activity in an H3 receptor assay (H3 receptor): active in an H3 receptor assay; H3 antagonism on guinea pig ileum (H3): H3 antagonist on guinea pig ileum |
| O=C(NCC1CCCCC1)[C@@H]1C[C@H]1c1c[nH]cn1 [Example 2b] | 176 ± 9 |  |  |
| N[C@@H](CC1CCCCC1)C(=O)N[C@@H]1C[C@H]1c1cnc[nH]1 [Example 12, (1R,2R)-trans-2-(S)-amino-3-cyclohexyl-N-(2-imidazol-4-ylcyclopropyl)propanamide] |  | 1.85 ± 0.5 |  |
| N[C@@H](CC1CCCCC1)C(=O)N[C@H]1C[C@@H]1c1cnc[nH]1 [Example 13, (1S,2S)-trans-2-(S)-amino-3-cyclohexyl-N-(2-imidazol-4-ylcyclopropyl)propanamide] |  | 21.5 ± 1.8 |  |
| O=C(N[C@@H]1C[C@H]1c1c[nH]cn1)[C@@H]1CC2CCCCC2N1 (stereo partly drawn) [Example 14, (2R, 3R)-trans-(7-Azabicyclo[4.3.0]non-(S)-8-yl)-N-(2-imidazol-4-ylcyclopropyl)formamide] |  | 8.5 ± 0.7 |  |
| O=C(N[C@H]1C[C@@H]1c1c[nH]cn1)[C@@H]1CC2CCCCC2N1 (stereo partly drawn) [Example 15, (2S, 3S)-trans-(7-Azabicyclo[4.3.0]non-(S)-8-yl)-N-(2-imidazol-4-ylcyclopropyl)formamide] |  | 37 ± 4 |  |
| N[C@H](/C=C/[C@@H]1C[C@H]1c1c[nH]cn1)CC1CCCCC1 [Example 20, (1R,2R)-trans-1-Cyclohexyl-4-(2-imidazol-4-ylcyclopropyl)but-trans-3-en-2(S)-ylamine] |  |  | Ki (Histamine H3 Receptor; [5]): 0.37 ± 0.2 nM |
| N[C@H](/C=C\[C@@H]1C[C@H]1c1c[nH]cn1)CC1CCCCC1 [Example 21, (1R,2R)-trans-1-Cyclohexyl-4-(2-imidazol-4-ylcyclopropyl)but-cis-3-en-2(S)-ylamine] |  |  | Ki (Histamine H3 Receptor; [5]): 97.7 ± 28 nM |
| C(=C/[C@@H]1C[C@H]1c1c[nH]cn1)/CCC1CCCCC1 [Example 23, (1R, 2R)-trans-4-(2-(4-Cyclohexylbut-cis-1-enyl)cyclopropyl)imidazole] |  | 6.2 ± 0.8 |  |
| C(=C/[C@H]1C[C@@H]1c1c[nH]cn1)/CCC1CCCCC1 [Example 24, (1S, 2S)-trans-4-(2-(4-Cyclohexylbut-cis-1-enyl)cyclopropyl)imidazole] | 108 ± 3 |  |  |
| C(=C\[C@H]1C[C@@H]1c1c[nH]cn1)/CCC1CCCCC1 [Example 25, (1S, 2S)-trans-4-(2-(4-Cyclohexylbut-trans-1-enyl)cyclopropyl)imidazole] |  | 56 ± 9 |  |
| O=C(NCCC1CCCCC1)C1CC1c1c[nH]cn1 [Example 27, (1S, 2S)-trans-N-(2-Cyclohexylethyl)(2-imidazol-4-ylcyclopropyl)formamide] | 8.8 ± 0.1 |  |  |
| O=C(NCCC1CCCCC1)C1CC1c1c[nH]cn1 [Example 28, (1R, 2R)-trans-N-(2-Cyclohexylethyl)(2-imidazol-4-ylcyclopropyl)formamide] | 46 ± 13 |  |  |
| O=C(NCCCC1CCCCC1)[C@H]1C[C@@H]1c1cnc[nH]1 [Example 30] |  | 42 ± 7 |  |
| CC(C)(C)CCC#C[C@@H]1C[C@H]1c1c[nH]cn1 [Example 39, (1R,2R)-4-(2-(5,5-Dimethylhex-1-ynyl)cyclopropyl)imidazole] | 0.15 ± 0.04 |  |  |
| CC(C)(C)CC/C=C\[C@H]1C[C@H]1c1c[nH]cn1 [Example 42, (1R,2R)-4-(2-(5,5-Dimethyl-cis-hex-1-enyl)cyclopropyl)imidazole] |  | 41 ± 4 |  |
| N[C@@H](Cc1ccc(I)cc1)C(=O)N[C@@H]1C[C@H]1c1cnc[nH]1 [Example 44] | 10.4 ± 1.6 |  |  |
| N[C@@H](Cc1ccc(Br)cc1)C(=O)N[C@@H]1C[C@H]1c1c[nH]cn1 [Example 45] | 9.4 ± 1.1 |  |  |
| CC(C)(C)CCC#C[C@H]1C[C@@H]1c1cnc[nH]1 [Example 52, (1S,2S)-trans-4-(2-(5,5-Dimethylhex-1-ynyl)cyclopropyl)imidazole] | 5.3 ± 0.5 |  |  |
| NCCc1c[nH]cn1 [histamine] |  |  | spontaneous locomotor activity, grooming and exploratory behavior [1]: increased spontaneous locomotor activity, grooming and exploratory behavior; arousal EEG pattern [2]: induces the appearances of an arousal EEG pattern |
| S=C(NC1CCCCC1)N1CCC(c2cnc[nH]2)CC1 [thioperamide] |  |  | wakefulness [3]: enhanced wakefulness in a dose-dependent fashion |
